Results reported in patent US20140004243A1, “SALTY TASTE ENHANCER” (AJINOMOTO CO., INC., priority 2011, published 2014).

molecular target: T1, Human ENaC δ, β and γ subunit (Homo sapiens, UniProt P51168+P51170+P51172); experiment: Measurement of ENaC activation potency (MED) in ENaC-expressing oocyte, Two Electrode Voltage Clamp; type: cell-based; settings: minimum effective dose at which current started to increase; ENaC-expressing African clawed frog oocyte; smaller MED = higher ENaC activation potency
T1 construct: expressed in transfected cells; host or cells: Xenopus laevis (African clawed frog) oocytes injected with cRNA
T1 sequence (P51172 1-802): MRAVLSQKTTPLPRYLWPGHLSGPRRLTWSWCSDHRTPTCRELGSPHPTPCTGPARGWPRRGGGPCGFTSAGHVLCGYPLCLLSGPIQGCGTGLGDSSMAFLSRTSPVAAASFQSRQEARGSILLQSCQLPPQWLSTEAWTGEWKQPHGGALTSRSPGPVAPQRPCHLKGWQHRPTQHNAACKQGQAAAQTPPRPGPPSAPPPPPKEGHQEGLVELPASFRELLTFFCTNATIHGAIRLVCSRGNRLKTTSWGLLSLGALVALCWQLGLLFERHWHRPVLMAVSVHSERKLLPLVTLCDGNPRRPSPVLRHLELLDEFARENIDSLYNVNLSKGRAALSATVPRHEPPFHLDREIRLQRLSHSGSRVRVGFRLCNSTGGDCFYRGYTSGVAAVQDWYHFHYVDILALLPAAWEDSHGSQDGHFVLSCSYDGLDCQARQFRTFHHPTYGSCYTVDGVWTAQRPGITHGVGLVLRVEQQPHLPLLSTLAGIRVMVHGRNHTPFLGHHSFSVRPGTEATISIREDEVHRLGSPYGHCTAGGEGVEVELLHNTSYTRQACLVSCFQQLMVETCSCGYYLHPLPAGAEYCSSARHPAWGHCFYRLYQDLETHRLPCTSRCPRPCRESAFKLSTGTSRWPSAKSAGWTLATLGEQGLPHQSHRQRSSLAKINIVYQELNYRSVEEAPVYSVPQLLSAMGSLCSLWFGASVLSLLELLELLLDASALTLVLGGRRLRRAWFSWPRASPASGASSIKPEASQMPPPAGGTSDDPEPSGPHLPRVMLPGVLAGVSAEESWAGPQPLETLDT
T1 sequence (P51168 1-640): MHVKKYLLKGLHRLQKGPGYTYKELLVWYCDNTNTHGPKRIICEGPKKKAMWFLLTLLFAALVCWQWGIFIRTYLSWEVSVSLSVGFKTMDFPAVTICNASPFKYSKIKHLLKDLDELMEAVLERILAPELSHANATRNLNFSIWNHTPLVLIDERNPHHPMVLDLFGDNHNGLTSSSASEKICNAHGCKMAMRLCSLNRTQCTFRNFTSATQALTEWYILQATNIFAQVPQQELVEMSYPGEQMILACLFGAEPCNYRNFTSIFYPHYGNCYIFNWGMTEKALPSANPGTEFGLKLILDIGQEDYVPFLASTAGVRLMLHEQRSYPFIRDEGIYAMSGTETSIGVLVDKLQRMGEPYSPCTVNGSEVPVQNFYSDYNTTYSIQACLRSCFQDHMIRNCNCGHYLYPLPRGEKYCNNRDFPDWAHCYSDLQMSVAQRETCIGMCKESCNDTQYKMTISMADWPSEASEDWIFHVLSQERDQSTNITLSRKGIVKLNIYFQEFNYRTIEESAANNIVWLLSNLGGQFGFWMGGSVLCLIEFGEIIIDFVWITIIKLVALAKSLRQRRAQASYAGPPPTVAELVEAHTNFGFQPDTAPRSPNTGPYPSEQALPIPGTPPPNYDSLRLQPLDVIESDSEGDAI
T1 sequence (P51170 1-649): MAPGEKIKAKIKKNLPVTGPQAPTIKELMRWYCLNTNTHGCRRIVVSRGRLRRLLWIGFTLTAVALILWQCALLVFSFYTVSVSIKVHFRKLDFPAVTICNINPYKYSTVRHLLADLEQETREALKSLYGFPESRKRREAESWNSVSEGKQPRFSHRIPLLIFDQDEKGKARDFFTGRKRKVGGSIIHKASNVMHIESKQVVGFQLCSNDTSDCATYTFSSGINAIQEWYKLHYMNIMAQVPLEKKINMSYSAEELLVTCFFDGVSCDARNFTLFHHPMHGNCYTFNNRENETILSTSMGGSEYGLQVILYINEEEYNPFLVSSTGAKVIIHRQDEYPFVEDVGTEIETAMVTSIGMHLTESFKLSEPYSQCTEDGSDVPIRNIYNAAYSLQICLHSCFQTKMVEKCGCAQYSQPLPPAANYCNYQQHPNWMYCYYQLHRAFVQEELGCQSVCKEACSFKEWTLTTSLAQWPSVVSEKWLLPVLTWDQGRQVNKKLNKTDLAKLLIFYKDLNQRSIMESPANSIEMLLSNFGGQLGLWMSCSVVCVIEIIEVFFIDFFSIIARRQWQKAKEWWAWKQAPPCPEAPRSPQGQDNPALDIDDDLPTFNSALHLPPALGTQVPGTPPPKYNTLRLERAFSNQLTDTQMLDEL
In short: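 Xenopus oocytes injected with human ENaC δ, β and γ cRNA, cultured 16–72 hr, voltage-clamped 30 mV below resting potential in ND96 (pH 7.6) by two-electrode voltage clamp. Compounds (0.1 nM–300 μM) perfused at rising concentrations every 3 min. MED = lowest dose raising current ≥10%, or raising 5 μM capsazepine-evoked current ≥25%, whichever smaller.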

SMILES | MED [µM]
C[C@@H](NC(=S)NCCc1ccccc1)c1ccccc1 [Example 11] | 0.3
OC[C@@H](NC(=S)NCCc1ccccc1)c1ccccc1 [Example 51] | 0.3
Oc1cc2c(cc1O)CN(C(=S)NCCc1ccc(Cl)cc1)CCC2 [capsazepine] | 3
